Assay results from US5118669A, “Peptides and intermediates therefor useful as antiallergic agents, vasodilators and immunoregulators” (Hitachi Chemical Co., Ltd., priority 1989, dated 1992).

Columns and labels:
[1] = test system: thoracic aorta of male rabbits contracted with potassium chloride; assay: Vasodilating action on aortic spiral strip contracted with potassium chloride; set-up: species or system rabbit; details: potassium chloride contraction
Method: (§1) The thoracic aorta of male rabbits weighing 2.5-3 kg was excised and aortic specimens of spiral strip 25-30 mm in length were prepared. […] The specimen was cumulatively administered with H-Asp-Gly-Lys-OH, H Ser-Asp-Gly-Lys-OH, or H-Asp-Ser-Asp-Gly-Lys-OH or H-Ala-Asp-Ser-Asp-Gly-Lys-OH, and relaxation reaction of the blood vessel was observed. As comparative drug were employed nitroprusside (sodium salt) and verapamil.

[2] = test system: thoracic aorta of male rabbits contracted with norepinephrine; assay: Vasodilating action on aortic spiral strip contracted with norepinephrine; set-up: species or system rabbit; details: norepinephrine contraction
Method: as §1

COc1ccc(CCN(C)CCCC(C#N)(c2ccc(OC)c(OC)c2)C(C)C)cc1OC (centres unmarked) [Verapamil, verapamil, reference compound]
Percent relaxation ([1]; compound 10^-4 M): 100% | Percent relaxation ([1]; compound 10^-5 M): 100% | Percent relaxation ([1]; compound 10^-6 M): 97.1% | Percent relaxation ([1]; compound 10^-7 M): 68.3% | Percent relaxation ([1]; compound 10^-8 M): 7.1% | Percent relaxation ([2]; compound 10^-4 M): 68.6% | Percent relaxation ([2]; compound 10^-5 M): 47.1% | Percent relaxation ([2]; compound 10^-6 M): 20.6% | Percent relaxation ([2]; compound 10^-7 M): 4.6% | Percent relaxation ([2]; compound 10^-8 M): 0%

nitroprusside [reference compound]
Percent relaxation ([1]; compound 10^-4 M): 35.7% | Percent relaxation ([1]; compound 10^-5 M): 24.3% | Percent relaxation ([1]; compound 10^-6 M): 11.4% | Percent relaxation ([1]; compound 10^-7 M): 1.4% | Percent relaxation ([1]; compound 10^-8 M): 0% | Percent relaxation ([2]; compound 10^-4 M): 98.8% | Percent relaxation ([2]; compound 10^-5 M): 93.8% | Percent relaxation ([2]; compound 10^-6 M): 86.0% | Percent relaxation ([2]; compound 10^-7 M): 59.4% | Percent relaxation ([2]; compound 10^-8 M): 16.1%
